Experimental data as given in ChEMBL document CHEMBL1131172 (J Med Chem, 1998).

Columns and labels:
[1] = tested on: CAKI-1; experiment: inhibition of the growth of renal cancer(CAKI-1) cell line; type: functional; settings: Homo sapiens
[2] = tested on: 786-0; experiment: Inhibition of the growth of renal cancer(786-0) cell line at 0.01 uM; type: functional; settings: Homo sapiens
[3] = tested on: RPMI-8226; experiment: Inhibition of the growth of leukemia (RPMI-8226) cell line at 0.01 uM; type: functional; settings: Homo sapiens
[4] = tested on: NCI-H23; experiment: Inhibition of the growth of non-small-cell lung cancer (NCI-H23) cell line at 0.01 uM; type: functional; settings: Homo sapiens
[5] = tested on: A549; experiment: inhibition of the growth of non-small-cell lung cancer (A549/ATCC) cell line; type: functional; settings: Homo sapiens
[6] = tested on: 786-0; experiment: inhibition of the growth of renal cancer(786-0) cell line; type: functional; settings: Homo sapiens
[7] = tested on: NCI/ADR-RES; experiment: Inhibition of the growth of breast cancer (MCF7/ADR-RES) cell line at 0.01 uM; type: functional; settings: Homo sapiens
[8] = tested on: RPMI-8226; experiment: Inhibition of the growth of leukemia (RPMI-8226) cell line; type: functional; settings: Homo sapiens
[9] = tested on: NCI-H322M; experiment: inhibition of the growth of non-small-cell lung cancer (NCI-H322M) cell line; type: functional; settings: Homo sapiens
[10] = tested on: NCI-H522; experiment: Inhibition of the growth of non-small-cell lung cancer (NCI-H522) cell line at 0.01 uM; type: functional; settings: Homo sapiens
[11] = tested on: MOLT-4; experiment: Inhibition of the growth of leukemia (MOLT-4) cell line at 0.01 uM; type: functional; settings: Homo sapiens
[12] = tested on: OVCAR-8; experiment: Inhibition of the growth of ovarian cancer(OVCAR-8) cell line at 0.01 uM; type: functional; settings: Homo sapiens
[13] = tested on: MCF7; experiment: Inhibition of the growth of breast cancer (MCF-7) cell line at 0.01 uM; type: functional; settings: Homo sapiens
[14] = tested on: HCT-15; experiment: inhibition of the growth of colon cancer(HCT-15) cell line; type: functional; settings: Homo sapiens
[15] = tested on: NCI-H322M; experiment: Inhibition of the growth of non-small-cell lung cancer (NCI-H322M) cell line at 0.01 uM; type: functional; settings: Homo sapiens
[16] = target: T1, Dihydrofolate reductase (Rattus norvegicus, UniProt Q920D2)
T1 sequence (Q920D2 whole entry): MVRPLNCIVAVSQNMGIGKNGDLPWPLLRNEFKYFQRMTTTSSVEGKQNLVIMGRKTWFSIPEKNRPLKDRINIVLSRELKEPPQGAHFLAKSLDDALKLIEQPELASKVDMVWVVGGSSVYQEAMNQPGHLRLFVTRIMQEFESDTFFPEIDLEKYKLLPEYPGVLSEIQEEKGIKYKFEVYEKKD
Description: Inhibitory activity against dihydrofolate reductase (DHFR) from rat liver

[17] = tested on: UO-31; experiment: inhibition of the growth of renal cancer(UO-31) cell line; type: functional; settings: Homo sapiens
[18] = tested on: NCI-H460; experiment: Inhibition of the growth of non-small-cell lung cancer (NCI-H460) cell line at 0.01 uM; type: functional; settings: Homo sapiens
[19] = tested on: IGROV-1; experiment: Inhibition of the growth of ovarian cancer(IGROVI) cell line at 0.01 uM; type: functional; settings: Homo sapiens
[20] = tested on: NCI-H23; experiment: Inhibition of the growth of non-small-cell lung cancer (NCI-H23) cell line; type: functional; settings: Homo sapiens
[21] = tested on: NCI-H460; experiment: inhibition of the growth of non-small-cell lung cancer (NCI-H460) cell line; type: functional; settings: Homo sapiens
[22] = tested on: SR; experiment: Inhibition of the growth of leukemia(SR) cell line; type: functional; settings: Homo sapiens
[23] = tested on: DU-145; experiment: Inhibition of the growth of prostate cancer(DU-145) cell line at 0.01 uM; type: functional; settings: Homo sapiens
[24] = tested on: SNB-19; experiment: Inhibition of the growth of CNS cancer(SNB-19) cell line at 0.01 uM; type: functional; settings: Homo sapiens
[25] = tested on: MCF7; experiment: inhibition of the growth of breast cancer (MCF-7) cell line; type: functional; settings: Homo sapiens
[26] = tested on: SF-539; experiment: inhibition of the growth of CNS cancer(SF-539) cell line; type: functional; settings: Homo sapiens
[27] = tested on: KM12; experiment: Inhibition of the growth of colon cancer(KM-12) cell line at 0.01 uM; type: functional; settings: Homo sapiens
[28] = tested on: SNB-19; experiment: inhibition of the growth of CNS cancer(SNB-19) cell line; type: functional; settings: Homo sapiens
[29] = tested on: MDA-N; experiment: Inhibition of the growth of breast cancer(MDA-N) cell line at 0.01 uM; type: functional; settings: Homo sapiens
[30] = tested on: MDA-N; experiment: inhibition of the growth of breast cancer(MDA-N) cell line; type: functional; settings: Homo sapiens
[31] = tested on: M14; experiment: inhibition of the growth of melanoma cancer (M14) cell line; type: functional; settings: Homo sapiens
[32] = tested on: IGROV-1; experiment: inhibition of the growth of ovarian cancer(IGROVI) cell line; type: functional; settings: Homo sapiens
[33] = target: T2, Bifunctional dihydrofolate reductase-thymidylate synthase (Toxoplasma gondii, UniProt Q07422)
T2 sequence (Q07422 whole entry): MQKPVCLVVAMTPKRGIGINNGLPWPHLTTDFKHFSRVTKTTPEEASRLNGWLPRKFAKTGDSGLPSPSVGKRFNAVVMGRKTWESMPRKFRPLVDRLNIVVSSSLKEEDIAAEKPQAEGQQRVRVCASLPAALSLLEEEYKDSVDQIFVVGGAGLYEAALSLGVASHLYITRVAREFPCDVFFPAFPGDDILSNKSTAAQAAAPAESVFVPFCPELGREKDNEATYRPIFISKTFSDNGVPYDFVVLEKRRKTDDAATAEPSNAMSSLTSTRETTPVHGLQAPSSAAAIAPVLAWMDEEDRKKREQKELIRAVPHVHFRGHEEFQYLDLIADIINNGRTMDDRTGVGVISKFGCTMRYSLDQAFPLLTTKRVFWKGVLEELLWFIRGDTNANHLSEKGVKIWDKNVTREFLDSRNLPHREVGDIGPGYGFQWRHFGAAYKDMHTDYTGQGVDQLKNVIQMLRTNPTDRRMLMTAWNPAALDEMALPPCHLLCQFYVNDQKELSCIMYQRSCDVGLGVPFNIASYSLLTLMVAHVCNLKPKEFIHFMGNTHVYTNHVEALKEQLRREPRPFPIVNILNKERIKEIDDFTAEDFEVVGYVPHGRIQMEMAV
Description: Inhibitory activity against dihydrofolate reductase (DHFR) from Toxoplasma gondii

[34] = tested on: HCT-116; experiment: inhibition of the growth of colon cancer(HCT116) cell line; type: functional; settings: Homo sapiens
[35] = tested on: MOLT-4; experiment: Inhibition of the growth of leukemia (MOLT-4) cell line; type: functional; settings: Homo sapiens
[36] = tested on: OVCAR-8; experiment: inhibition of the growth of ovarian cancer(OVCAR-8) cell line; type: functional; settings: Homo sapiens
[37] = tested on: MDA-MB-435; experiment: Inhibition of the growth of breast cancer (MDA-MB-435) cell line at 0.01 uM; type: functional; settings: Homo sapiens
[38] = tested on: KM12; experiment: inhibition of the growth of colon cancer(KM-12) cell line; type: functional; settings: Homo sapiens
[39] = target: T3, Dihydrofolate reductase (Pneumocystis carinii, UniProt P16184)
T3 sequence (P16184 whole entry): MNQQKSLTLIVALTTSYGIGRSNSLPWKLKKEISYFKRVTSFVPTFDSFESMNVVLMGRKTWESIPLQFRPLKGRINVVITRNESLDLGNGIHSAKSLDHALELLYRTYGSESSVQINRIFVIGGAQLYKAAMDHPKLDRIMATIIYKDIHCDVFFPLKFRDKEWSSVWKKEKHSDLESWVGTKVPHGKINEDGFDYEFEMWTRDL
Description: Inhibitory activity against dihydrofolate reductase (DHFR) from Pneumocystis carinii

[40] = tested on: SK-MEL-5; experiment: Inhibition of the growth of melanoma cancer (SK-MEL-5) cell line at 0.01 uM; type: functional; settings: Homo sapiens
[41] = tested on: HCT-116; experiment: Inhibition of the growth of colon cancer(HCT116) cell line at 0.01 uM; type: functional; settings: Homo sapiens
[42] = tested on: NCI/ADR-RES; experiment: inhibition of the growth of breast cancer (MCF7/ADR-RES) cell line; type: functional; settings: Homo sapiens
[43] = tested on: UO-31; experiment: Inhibition of the growth of renal cancer(UO-31) cell line at 0.01 uM; type: functional; settings: Homo sapiens
[44] = tested on: MDA-MB-435; experiment: inhibition of the growth of breast cancer (MDA-MB-435) cell line; type: functional; settings: Homo sapiens
[45] = tested on: M14; experiment: Inhibition of the growth of melanoma cancer (M14) cell line at 0.01 uM; type: functional; settings: Homo sapiens
[46] = tested on: SF-539; experiment: Inhibition of the growth of CNS cancer(SF-539) cell line at 0.01 uM; type: functional; settings: Homo sapiens
[47] = tested on: SF-295; experiment: Inhibition of the growth of CNS cancer(SF-295) cell line at 0.01 uM; type: functional; settings: Homo sapiens
[48] = tested on: HCT-15; experiment: Inhibition of the growth of colon cancer(HCT-15) cell line at 0.01 uM; type: functional; settings: Homo sapiens
[49] = tested on: NCI-H522; experiment: inhibition of the growth of non-small-cell lung cancer (NCI-H522) cell line; type: functional; settings: Homo sapiens
[50] = tested on: CAKI-1; experiment: Inhibition of the growth of renal cancer(CAKI-1) cell line at 0.01 uM; type: functional; settings: Homo sapiens
[51] = tested on: A549; experiment: Inhibition of the growth of non-small-cell lung cancer (A549/ATCC) cell line at 0.01 uM; type: functional; settings: Homo sapiens
[52] = tested on: SF-295; experiment: inhibition of the growth of CNS cancer(SF-295) cell line; type: functional; settings: Homo sapiens
[53] = tested on: SF-268; experiment: inhibition of the growth of CNS cancer(SF-268) cell line; type: functional; settings: Homo sapiens
[54] = tested on: SK-MEL-5; experiment: inhibition of the growth of melanoma cancer (SK-MEL-5) cell line; type: functional; settings: Homo sapiens
[55] = tested on: SF-268; experiment: Inhibition of the growth of CNS cancer(SF-268) cell line at 0.01 uM; type: functional; settings: Homo sapiens
[56] = tested on: SR; experiment: Inhibition of the growth of leukemia(SR) cell line at 0.01 uM; type: functional; settings: Homo sapiens
[57] = tested on: DU-145; experiment: inhibition of the growth of prostate cancer(DU-145) cell line; type: functional; settings: Homo sapiens

COc1ccc(OC)c(N(C)c2ccc3nc(N)nc(N)c3n2)c1
GI50 [1]: < 10 nM | inhibition at 0.01 µM [2]: 55% | inhibition at 0.01 µM [3]: 68% | inhibition at 0.01 µM [4]: 78% | GI50 [5]: < 10 nM | GI50 [6]: < 10 nM | inhibition at 0.01 µM [7]: 82% | GI50 [8]: < 10 nM | GI50 [9]: < 10 nM | inhibition at 0.01 µM [10]: 67% | inhibition at 0.01 µM [11]: 54% | inhibition at 0.01 µM [12]: 75% | inhibition at 0.01 µM [13]: 58% | GI50 [14]: < 10 nM | inhibition at 0.01 µM [15]: 58% | IC50 [16]: 4.2 nM | GI50 [17]: < 10 nM | inhibition at 0.01 µM [18]: 82% | inhibition at 0.01 µM [19]: 66% | GI50 [20]: < 10 nM | GI50 [21]: < 10 nM | GI50 [22]: < 10 nM | inhibition at 0.01 µM [23]: 57% | inhibition at 0.01 µM [24]: 73% | GI50 [25]: < 10 nM | GI50 [26]: < 10 nM | inhibition at 0.01 µM [27]: 55% | GI50 [28]: < 10 nM | inhibition at 0.01 µM [29]: 59% | GI50 [30]: < 10 nM | GI50 [31]: < 10 nM | GI50 [32]: < 10 nM | IC50 [33]: 41 nM | GI50 [34]: < 10 nM | GI50 [35]: < 10 nM | GI50 [36]: < 10 nM | inhibition at 0.01 µM [37]: 70% | GI50 [38]: < 10 nM | IC50 [39]: 34 nM | inhibition at 0.01 µM [40]: 76% | inhibition at 0.01 µM [41]: 83% | GI50 [42]: < 10 nM | inhibition at 0.01 µM [43]: 100% | GI50 [44]: < 10 nM | inhibition at 0.01 µM [45]: 61% | inhibition at 0.01 µM [46]: 65% | inhibition at 0.01 µM [47]: 69% | inhibition at 0.01 µM [48]: 70% | GI50 [49]: < 10 nM | inhibition at 0.01 µM [50]: 70% | inhibition at 0.01 µM [51]: 72% | GI50 [52]: < 10 nM | GI50 [53]: < 10 nM | GI50 [54]: < 10 nM | inhibition at 0.01 µM [55]: 57% | inhibition at 0.01 µM [56]: 68% | GI50 [57]: < 10 nM

CN(c1ccc2nc(N)nc(N)c2n1)c1cccc2ccccc12
IC50 [16]: 3300 nM | IC50 [33]: 2100 nM

COc1ccc(Nc2ccc3nc(N)nc(N)c3n2)cc1OC
IC50 [16]: 1100 nM | IC50 [33]: 680 nM | IC50 [39]: 40400 nM
